Reference: publication PMC6001238, “Iterative Chemical Engineering of Vancomycin Leads to Novel Vancomycin Analogs With a High in Vitro Therapeutic Index” (Frontiers in Microbiology, 2018)
Values after ≈ are worked out from the molar mass of the structure shown.

Key:
[1] = system: S. aureus VSSA (ATCC 6538); assay: MIC, broth microdilution, vancomycin-sensitive S. aureus (VSSA/MSSA, ATCC 6538); assay type: cell-based, Staphylococcus aureus; settings: for MIC: Staphylococcus aureus VSSA, read-out: MIC; for MIC-fold improvement vs. vancomycin: VSSA, ratio of MIC of vancomycin and MIC of analogue
Procedure, shortened: (§1)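 Read-out: lowest concentration inhibiting growth in broth microdilution, CLSI method. Water and broth-only wells acted as controls; in one case 10 μM vancomycin (final) was present with the compound.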

[2] = system: Murine leukemia (L1210) cells; assay: Cytostatic activity, L1210 cell proliferation; assay type: cell-based; settings: mean ± SD of three experiments; highest concentration tested 250 µM; 2 days; read-out: Toxicity (IC50) L1210
Procedure, shortened: (§2)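 Coulter counter cell counts after 37°C culture with compound; IC50 = concentration giving 50% growth inhibition vs negative control. Incubation: L1210 2 d, CEM 3 d, HeLa 4 d. Suspension density before mixing with an equal volume of dilution: 300,000–500,000 cells/mL.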

S. aureus VISA/HIP5827 = assay: MIC, broth microdilution, vancomycin-intermediate S. aureus VISA HIP5827; assay type: cell-based, Staphylococcus aureus; settings: for MIC: Staphylococcus aureus VISA/HIP5827, read-out: MIC; for MIC-fold improvement vs. vancomycin: VISA/HIP5827, ratio of MIC of vancomycin and MIC of analogue
Procedure, shortened: as §1

MRSA KS2 = assay: MIC, broth microdilution, MRSA KS2; assay type: cell-based, Staphylococcus aureus; settings: for MIC-fold improvement vs. vancomycin: MRSA KS2, ratio of MIC of vancomycin and MIC of analogue; for MIC: Staphylococcus aureus MRSA KS2, read-out: MIC
Procedure, shortened: as §1

E. faecalis VRE 29 = assay: MIC, broth microdilution, vancomycin-resistant E. faecalis VRE 29 (VanA); assay type: cell-based, Enterococcus faecalis; settings: for MIC: Enterococcus faecalis VRE 29 (vancomycin-resistant), read-out: MIC; for MIC-fold improvement vs. vancomycin: VRE 29, ratio of MIC of vancomycin and MIC of analogue
Procedure, shortened: as §1

[3] = system: human T-lymphocyte (CEM) cells; assay: Cytostatic activity, CEM cell proliferation; assay type: cell-based; settings: mean ± SD of three experiments; highest concentration tested 250 µM; 3 days; read-out: Toxicity (IC50) CEM
Procedure, shortened: as §2

MRSA KS89 = assay: MIC, broth microdilution, MRSA KS89; assay type: cell-based, Staphylococcus aureus; settings: for MIC-fold improvement vs. vancomycin: MRSA KS8, ratio of MIC of vancomycin and MIC of analogue; for MIC: Staphylococcus aureus MRSA KS8, read-out: MIC
Procedure, shortened: as §1

E. faecalis VSE 1 = assay: MIC, broth microdilution, vancomycin-sensitive E. faecalis (VSE 1); assay type: cell-based, Enterococcus faecalis; settings: for MIC: Enterococcus faecalis VSE 1 (vancomycin-sensitive), read-out: MIC; for MIC-fold improvement vs. vancomycin: VSE 1, ratio of MIC of vancomycin and MIC of analogue
Procedure, shortened: as §1

S. aureus VRSA = assay: MIC, broth microdilution, vancomycin-resistant S. aureus (VRSA); assay type: cell-based, Staphylococcus aureus; settings: for MIC: Staphylococcus aureus VRSA, read-out: MIC; for MIC-fold improvement vs. vancomycin: VRSA, ratio of MIC of vancomycin and MIC of analogue
Procedure, shortened: as §1

MRSA KS6 = assay: MIC, broth microdilution, MRSA KS6; assay type: cell-based, Staphylococcus aureus; settings: for MIC-fold improvement vs. vancomycin: MRSA KS6, ratio of MIC of vancomycin and MIC of analogue; for MIC: Staphylococcus aureus MRSA KS6, read-out: MIC
Procedure, shortened: as §1

E. faecalis VRE 53 = assay: MIC, broth microdilution, vancomycin-resistant E. faecalis VRE 53 (VanA); assay type: cell-based, Enterococcus faecalis; settings: for MIC: Enterococcus faecalis VRE 53 (vancomycin-resistant), read-out: MIC; for MIC-fold improvement vs. vancomycin: VRE 53, ratio of MIC of vancomycin and MIC of analogue
Procedure, shortened: as §1

MRSA KS1 = assay: MIC, broth microdilution, MRSA KS1; assay type: cell-based, Staphylococcus aureus; settings: for MIC-fold improvement vs. vancomycin: MRSA KS1, ratio of MIC of vancomycin and MIC of analogue; for MIC: Staphylococcus aureus MRSA KS1, read-out: MIC
Procedure, shortened: as §1

[4] = system: human cervix carcinoma (HeLa) cells; assay: Cytostatic activity, HeLa cell proliferation; assay type: cell-based; settings: mean ± SD of three experiments; highest concentration tested 250 µM; 4 days; read-out: Toxicity (IC50) HeLa
Procedure, shortened: as §2

[5] = system: L1210, CEM and HeLa cell lines; assay: Cytostatic activity, average or summary over L1210, CEM and HeLa; assay type: cell-based; settings: average of L1210, CEM and HeLa; read-out: Toxicity (IC50) Average
Procedure, shortened: as §2

E. faecalis VRE 37 = assay: MIC, broth microdilution, vancomycin-resistant E. faecalis VRE 37 (VanA); assay type: cell-based, Enterococcus faecalis; settings: for MIC: Enterococcus faecalis VRE 37 (vancomycin-resistant), read-out: MIC; for MIC-fold improvement vs. vancomycin: VRE 37, ratio of MIC of vancomycin and MIC of analogue
Procedure, shortened: as §1

E. faecalis VRE 6 = assay: MIC, broth microdilution, vancomycin-resistant E. faecalis VRE 6 (VanA); assay type: cell-based, Enterococcus faecalis; settings: for MIC: Enterococcus faecalis VRE 6 (vancomycin-resistant), read-out: MIC; for MIC-fold improvement vs. vancomycin: VRE 6, ratio of MIC of vancomycin and MIC of analogue
Procedure, shortened: as §1

Structure (SMILES)	MIC [1]	MIC-fold improvement vs. vancomycin [1]	IC50 [2]	MIC (S. aureus VISA/HIP5827)	MIC-fold improvement vs. vancomycin (S. aureus VISA/HIP5827)	MIC-fold improvement vs. vancomycin (MRSA KS2)	MIC (MRSA KS2)	MIC (E. faecalis VRE 29)	MIC-fold improvement vs. vancomycin (E. faecalis VRE 29)	IC50 [3]	MIC-fold improvement vs. vancomycin (MRSA KS89)	MIC (MRSA KS89)	MIC (E. faecalis VSE 1)	MIC-fold improvement vs. vancomycin (E. faecalis VSE 1)	MIC (S. aureus VRSA)	MIC-fold improvement vs. vancomycin (S. aureus VRSA)	MIC-fold improvement vs. vancomycin (MRSA KS6)	MIC (MRSA KS6)	MIC (E. faecalis VRE 53)	MIC-fold improvement vs. vancomycin (E. faecalis VRE 53)	also measured
CNC(CC(C)C)C(=O)NC1C(=O)NC(CC(N)=O)C(=O)NC2C(=O)NC3C(=O)NC(C(=O)NC(C(=O)NCCCNC(=O)c4ccc5cc(NS(=O)(=O)c6ccc(C)cc6)ccc5c4)c4cc(O)cc(O)c4-c4cc3ccc4O)C(O)c3ccc(c(Cl)c3)Oc3cc2cc(c3OC2OC(CO)C(O)C(O)C2OC2CC(C)(N)C(O)C(C)O2)Oc2ccc(cc2Cl)C1O (centres unmarked) [Vanc-65]	0.39 µM (≈ 0.713 µg/mL)	2	> 250 µM	0.78 µM (≈ 1.43 µg/mL)	8	4	0.20 µM (≈ 0.366 µg/mL)	6.25 µM (≈ 11.4 µg/mL)	64	≥ 250 µM	2	0.39 µM (≈ 0.713 µg/mL)	0.39 µM (≈ 0.713 µg/mL)	4	0.39 µM (≈ 0.713 µg/mL)	256	2	0.39 µM (≈ 0.713 µg/mL)	25 µM (≈ 45.7 µg/mL)	16	MIC-fold improvement vs. vancomycin (MRSA KS1): 1; MIC (MRSA KS1): 0.78 µM (≈ 1.43 µg/mL); IC50 [4]: 54 ± 45 µM; IC50 [5]: 185 µM; MIC (E. faecalis VRE 37): 6.25 µM (≈ 11.4 µg/mL); MIC-fold improvement vs. vancomycin (E. faecalis VRE 37): 64; MIC (E. faecalis VRE 6): 3.13 µM (≈ 5.72 µg/mL); MIC-fold improvement vs. vancomycin (E. faecalis VRE 6): 64
CN[C@H](CC(C)C)C(=O)N[C@H]1C(=O)N[C@@H](CC(N)=O)C(=O)N[C@H]2C(=O)N[C@H]3C(=O)N[C@H](C(=O)N[C@H](C(=O)NCC(=O)Nc4ccc([N+](=O)[O-])cc4)c4cc(O)cc(O)c4-c4cc3ccc4O)[C@H](O)c3ccc(c(Cl)c3)Oc3cc2cc(c3O[C@@H]2O[C@H](CO)[C@@H](O)[C@H](O)[C@H]2O[C@H]2C[C@](C)(N)[C@H](O)[C@H](C)O2)Oc2ccc(cc2Cl)[C@H]1O [Vanc-67]	0.78 µM (≈ 1.27 µg/mL)	1	≥ 250 µM	1.56 µM (≈ 2.54 µg/mL)	4	2	0.39 µM (≈ 0.634 µg/mL)	25 µM (≈ 40.7 µg/mL)	16	165 ± 32 µM	1	0.78 µM (≈ 1.27 µg/mL)	0.78 µM (≈ 1.27 µg/mL)	2	6.25 µM (≈ 10.2 µg/mL)	16	1	0.78 µM (≈ 1.27 µg/mL)	25 µM (≈ 40.7 µg/mL)	16	MIC-fold improvement vs. vancomycin (MRSA KS1): 1; MIC (MRSA KS1): 0.78 µM (≈ 1.27 µg/mL); IC50 [4]: 52 ± 19 µM; IC50 [5]: 156 µM; MIC (E. faecalis VRE 37): 25 µM (≈ 40.7 µg/mL); MIC-fold improvement vs. vancomycin (E. faecalis VRE 37): 16; MIC (E. faecalis VRE 6): 12.5 µM (≈ 20.3 µg/mL); MIC-fold improvement vs. vancomycin (E. faecalis VRE 6): 16
CNC(CC(C)C)C(=O)NC1C(=O)NC(CC(N)=O)C(=O)NC2C(=O)NC3C(=O)NC(C(=O)NC(C(=O)NCC(=O)Nc4ccc(C#CC5CCCC5)cc4)c4cc(O)cc(O)c4-c4cc3ccc4O)C(O)c3ccc(c(Cl)c3)Oc3cc2cc(c3OC2OC(CO)C(O)C(O)C2OC2CC(C)(N)C(O)C(C)O2)Oc2ccc(cc2Cl)C1O (centres unmarked) [Vanc-69]	0.78 µM (≈ 1.31 µg/mL)	1	185 ± 93 µM	0.78 µM (≈ 1.31 µg/mL)	8	4	0.20 µM (≈ 0.335 µg/mL)	6.25 µM (≈ 10.5 µg/mL)	64	29 µM	4	0.20 µM (≈ 0.335 µg/mL)	0.78 µM (≈ 1.31 µg/mL)	2	1.56 µM (≈ 2.61 µg/mL)	64	4	0.20 µM (≈ 0.335 µg/mL)	6.25 µM (≈ 10.5 µg/mL)	64	MIC-fold improvement vs. vancomycin (MRSA KS1): 1; MIC (MRSA KS1): 0.78 µM (≈ 1.31 µg/mL); IC50 [4]: 55 ± 37 µM; IC50 [5]: 90 µM; MIC (E. faecalis VRE 37): 6.25 µM (≈ 10.5 µg/mL); MIC-fold improvement vs. vancomycin (E. faecalis VRE 37): 64; MIC (E. faecalis VRE 6): 3.13 µM (≈ 5.24 µg/mL); MIC-fold improvement vs. vancomycin (E. faecalis VRE 6): 64
CNC(CC(C)C)C(=O)NC1C(=O)NC(CC(N)=O)C(=O)NC2C(=O)NC3C(=O)NC(C(=O)NC(C(=O)NCC(=O)Nc4ccc(C#CC5CC5)cc4)c4cc(O)cc(O)c4-c4cc3ccc4O)C(O)c3ccc(c(Cl)c3)Oc3cc2cc(c3OC2OC(CO)C(O)C(O)C2OC2CC(C)(N)C(O)C(C)O2)Oc2ccc(cc2Cl)C1O (centres unmarked) [Vanc-70]	0.78 µM (≈ 1.28 µg/mL)	1	≥ 250 µM	0.78 µM (≈ 1.28 µg/mL)	8	4	0.20 µM (≈ 0.329 µg/mL)	6.25 µM (≈ 10.3 µg/mL)	64	143 ± 113 µM	2	0.39 µM (≈ 0.642 µg/mL)	0.78 µM (≈ 1.28 µg/mL)	2	1.56 µM (≈ 2.57 µg/mL)	64	4	0.20 µM (≈ 0.329 µg/mL)	6.25 µM (≈ 10.3 µg/mL)	64	MIC-fold improvement vs. vancomycin (MRSA KS1): 4; MIC (MRSA KS1): 0.20 µM (≈ 0.329 µg/mL); IC50 [4]: 73 ± 10 µM; IC50 [5]: 155 µM; MIC (E. faecalis VRE 37): 6.25 µM (≈ 10.3 µg/mL); MIC-fold improvement vs. vancomycin (E. faecalis VRE 37): 64; MIC (E. faecalis VRE 6): 6.25 µM (≈ 10.3 µg/mL); MIC-fold improvement vs. vancomycin (E. faecalis VRE 6): 32
CN[C@H](CC(C)C)C(=O)N[C@H]1C(=O)N[C@@H](CC(N)=O)C(=O)N[C@H]2C(=O)N[C@H]3C(=O)N[C@H](C(=O)N[C@H](C(=O)NCC(=O)Nc4ccc(Oc5ccccc5)cc4)c4cc(O)cc(O)c4-c4cc3ccc4O)[C@H](O)c3ccc(c(Cl)c3)Oc3cc2cc(c3O[C@@H]2O[C@H](CO)[C@@H](O)[C@H](O)[C@H]2O[C@H]2C[C@](C)(N)[C@H](O)[C@H](C)O2)Oc2ccc(cc2Cl)[C@H]1O [Vanc-71]	0.39 µM (≈ 0.653 µg/mL)	2	> 250 µM	0.78 µM (≈ 1.31 µg/mL)	8	4	0.20 µM (≈ 0.335 µg/mL)	6.25 µM (≈ 10.5 µg/mL)	64	137 ± 41 µM	4	0.20 µM (≈ 0.335 µg/mL)	0.78 µM (≈ 1.31 µg/mL)	2	1.56 µM (≈ 2.61 µg/mL)	64	4	0.20 µM (≈ 0.335 µg/mL)	6.25 µM (≈ 10.5 µg/mL)	64	MIC-fold improvement vs. vancomycin (MRSA KS1): 4; MIC (MRSA KS1): 0.20 µM (≈ 0.335 µg/mL); IC50 [4]: 91 ± 36 µM; IC50 [5]: 159 µM; MIC (E. faecalis VRE 37): 6.25 µM (≈ 10.5 µg/mL); MIC-fold improvement vs. vancomycin (E. faecalis VRE 37): 64; MIC (E. faecalis VRE 6): 3.13 µM (≈ 5.24 µg/mL); MIC-fold improvement vs. vancomycin (E. faecalis VRE 6): 64
